In patent publication US5672715A, “Herbicidal substituted 3-aryl-pyrazoles” (Monsanto Company, priority 1995, dated 1997):
Read-outs that look alike come from different tables or passages of the source.

How the values were obtained:
Type in all cases: in vivo
[1] = system: Soybean; assay: post-emergence herbicide test; conditions: Glycine max, post-emergence, read-out: % plant inhibition
Method in brief: (§1)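 Plants were raised from seed in topsoil pans in the greenhouse and treated post-emergence at two to three weeks of age. Candidate chemical was applied in spray solution or suspension containing about 0.4% emulsifier at 1870 L/Ha. Activity recorded as percent inhibition.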

[2] = system: Wheat; assay: post-emergence herbicide test; conditions: Triticum aestivum, post-emergence, read-out: % plant inhibition
Method in brief: as §1

[3] = system: Bedstraw Catchweed; assay: post-emergence herbicide test; conditions: Galium aparine, post-emergence, read-out: % plant inhibition
Method in brief: as §1

[4] = system: Barnyardgrass; assay: post-emergence herbicide test; conditions: Echinochloa crus-galli, post-emergence, read-out: % plant inhibition
Method in brief: as §1

[5] = system: Blackgrass; assay: post-emergence herbicide test; conditions: Alopecurus myosuroides, post-emergence, read-out: % plant inhibition; for inhibition at 7.95803 g/ha: 0.0071 lb/A; for inhibition at 40.0143 g/ha: 0.0357 lb/A; for inhibition at 200.072 g/ha: 0.1785 lb/A; for inhibition at 1000.92 g/ha: 0.893 lb/A
Method in brief: as §1

[6] = system: Cocklebur; assay: post-emergence herbicide test; conditions: Xanthium strumarium, post-emergence, read-out: % plant inhibition
Method in brief: as §1

[7] = system: Soybean; assay: pre-emergence herbicide test; conditions: Glycine max, pre-emergence, read-out: % plant inhibition
Method in brief: (§2)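 Steps: compact topsoil in pan; place seeds; level-fill with cover soil; add a known amount of compound before or after covering; keep pans in greenhouse, bottom-watering as needed; rate % inhibition at about 14 days.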

[8] = system: Yellow Foxtail; assay: pre-emergence herbicide test; conditions: Setaria, read-out: % plant inhibition
Method in brief: as §2

[9] = system: Yellow Nutsedge; assay: pre-emergence herbicide test; conditions: Cyperus, read-out: % plant inhibition
Method in brief: as §2

[10] = system: Velvetleaf; assay: pre-emergence herbicide test; conditions: Abutilon theophrasti, pre-emergence, read-out: % plant inhibition
Method in brief: as §2

[11] = system: Morning Glory; assay: pre-emergence herbicide test; conditions: Ipomoea, pre-emergence, read-out: % plant inhibition
Method in brief: as §2

[12] = system: Rice; assay: pre-emergence herbicide test; conditions: Oryza sativa, read-out: % plant inhibition
Method in brief: as §2

[13] = system: Barnyardgrass; assay: pre-emergence herbicide test; conditions: Echinochloa crus-galli, pre-emergence, read-out: % plant inhibition
Method in brief: as §2

[14] = system: Corn; assay: pre-emergence herbicide test
Method in brief: as §2

[15] = system: Cocklebur; assay: pre-emergence herbicide test; conditions: Xanthium strumarium, pre-emergence, read-out: % plant inhibition
Method in brief: as §2

With `COc1cc(-c2nn(C)c(C(F)(F)F)c2C)c(F)cc1Cl` [Compound 37] the inhibition at 7.95803 g/ha ([1]; 0.0071 lb/A) was 10%, the inhibition at 40.0143 g/ha ([1]; 0.0357 lb/A) was 40% and the inhibition at 200.072 g/ha ([1]; 0.1785 lb/A) was 40%. It also gave an inhibition at 1000.92 g/ha ([1]; 0.893 lb/A) of 60%, an inhibition at 7.95803 g/ha ([2]; 0.0071 lb/A) of 5% and an inhibition at 40.0143 g/ha ([2]; 0.0357 lb/A) of 0%. It also gave an inhibition at 200.072 g/ha ([2]; 0.1785 lb/A) of 10%, an inhibition at 1000.92 g/ha ([2]; 0.893 lb/A) of 30% and an inhibition at 7.95803 g/ha ([3]; 0.0071 lb/A) of 20%. The inhibition at 40.0143 g/ha ([3]; 0.0357 lb/A) was 35%, the inhibition at 200.072 g/ha ([3]; 0.1785 lb/A) was 75% and the inhibition at 1000.92 g/ha ([3]; 0.893 lb/A) was 90%. For the same molecule, the inhibition at 7.95803 g/ha ([4]; 0.0071 lb/A) was 0%, the inhibition at 40.0143 g/ha ([4]; 0.0357 lb/A) was 15% and the inhibition at 200.072 g/ha ([4]; 0.1785 lb/A) was 65%. The inhibition at 1000.92 g/ha ([4]; 0.893 lb/A) was 45%, the inhibition at 7.95803 g/ha ([5]; Table 4a) was 0% and the inhibition at 7.95803 g/ha ([5]; Table 5a) was 10%. It also gave an inhibition at 40.0143 g/ha ([5]; Table 4a) of 0%, an inhibition at 40.0143 g/ha ([5]; Table 5a) of 25% and an inhibition at 200.072 g/ha ([5]; Table 4a) of 10%. The inhibition at 200.072 g/ha ([5]; Table 5a) was 65%, the inhibition at 1000.92 g/ha ([5]; Table 4a) was 15% and the inhibition at 1000.92 g/ha ([5]; Table 5a) was 85%. The inhibition at 7.95803 g/ha ([6]; 0.0071 lb/A) was 5%, the inhibition at 40.0143 g/ha ([6]; 0.0357 lb/A) was 40% and the inhibition at 200.072 g/ha ([6]; 0.1785 lb/A) was 55%. It also gave an inhibition at 1000.92 g/ha ([6]; 0.893 lb/A) of 80%, an inhibition at 7.95803 g/ha ([7]; 0.0071 lb/A) of 20% and an inhibition at 40.0143 g/ha ([7]; 0.0357 lb/A) of 50%. The inhibition at 200.072 g/ha ([7]; 0.1785 lb/A) was 50%, the inhibition at 280.212 g/ha ([7]; 0.25 lb/A) was 35% and the inhibition at 1000.92 g/ha ([7]; 0.893 lb/A) was 100%. The inhibition at 7.95803 g/ha ([8]; 0.0071 lb/A) was 55%, the inhibition at 40.0143 g/ha ([8]; 0.0357 lb/A) was 95% and the inhibition at 200.072 g/ha ([8]; 0.1785 lb/A) was 100%. It also gave an inhibition at 280.212 g/ha ([8]; 0.25 lb/A) of 100%, an inhibition at 1000.92 g/ha ([8]; 0.893 lb/A) of 100% and an inhibition at 7.95803 g/ha ([9]; 0.0071 lb/A) of 0%. For the same molecule, the inhibition at 40.0143 g/ha ([9]; 0.0357 lb/A) was 35%, the inhibition at 200.072 g/ha ([9]; 0.1785 lb/A) was 50% and the inhibition at 1000.92 g/ha ([9]; 0.893 lb/A) was 45%. The inhibition at 7.95803 g/ha ([10]; 0.0071 lb/A) was 98%, the inhibition at 40.0143 g/ha ([10]; 0.0357 lb/A) was 100% and the inhibition at 200.072 g/ha ([10]; 0.1785 lb/A) was 100%. The inhibition at 280.212 g/ha ([10]; 0.25 lb/A) was 100%, the inhibition at 1000.92 g/ha ([10]; 0.893 lb/A) was 100% and the inhibition at 7.95803 g/ha ([11]; 0.0071 lb/A) was 80%. It also gave an inhibition at 40.0143 g/ha ([11]; 0.0357 lb/A) of 98%, an inhibition at 200.072 g/ha ([11]; 0.1785 lb/A) of 90% and an inhibition at 280.212 g/ha ([11]; 0.25 lb/A) of 98%. The inhibition at 1000.92 g/ha ([11]; 0.893 lb/A) was 100%, the inhibition at 7.95803 g/ha ([12]; 0.0071 lb/A) was 25% and the inhibition at 40.0143 g/ha ([12]; 0.0357 lb/A) was 0%. For the same molecule, the inhibition at 200.072 g/ha ([12]; 0.1785 lb/A) was 85%, the inhibition at 1000.92 g/ha ([12]; 0.893 lb/A) was 100% and the inhibition at 7.95803 g/ha ([13]; 0.0071 lb/A) was 80%. It also gave an inhibition at 40.0143 g/ha ([13]; 0.0357 lb/A) of 100%, an inhibition at 200.072 g/ha ([13]; 0.1785 lb/A) of 100% and an inhibition at 280.212 g/ha ([13]; 0.25 lb/A) of 100%. The inhibition at 1000.92 g/ha ([13]; 0.893 lb/A) was 100%, the “% plant inhibition” value ([14]; 0.25 lb/A) was 98% and the inhibition at 7.95803 g/ha ([14]; Zea mays, pre-emergence, 0.0071 lb/A, read-out: % plant inhibition) was 25%. The inhibition at 40.0143 g/ha ([14]; Zea mays, pre-emergence, 0.0357 lb/A, read-out: % plant inhibition) was 50%, the inhibition at 200.072 g/ha ([14]; Zea mays, pre-emergence, 0.1785 lb/A, read-out: % plant inhibition) was 85% and the inhibition at 280.212 g/ha ([14]; Zea mays, pre-emergence, 0.25 lb/A, read-out: % plant inhibition) was 95%. For the same molecule, the inhibition at 1000.92 g/ha ([14]; Zea mays, pre-emergence, 0.893 lb/A, read-out: % plant inhibition) was 100%, the inhibition at 7.95803 g/ha ([15]; 0.0071 lb/A) was 100% and the inhibition at 40.0143 g/ha ([15]; 0.0357 lb/A) was 75%. It also gave an inhibition at 200.072 g/ha ([15]; 0.1785 lb/A) of 80%, an inhibition at 280.212 g/ha ([15]; 0.25 lb/A) of 60% and an inhibition at 1000.92 g/ha ([15]; 0.893 lb/A) of 98%.
